Measured values from patent publication US20210187014A1 (The Regents of the University of Colorado, a body corporate, priority 2018, published 2021).

Columns and labels:
ATP5A1 [1] = target: T1, ATP5A1 (Homo sapiens, UniProt P25705); assay: Biotin-Ent binding to ATP5A1 (pulldown from HEK293T cells and in vitro binding assay); settings: excess, free Ent
T1 construct: His
Description: Sequence alignment indicates 78% identity between the ATP synthase a-subunits from C. elegans (ATP-1, Wormbase; SEQ ID NO. 7) and humans (ATP5A1, NCBI; SEQ ID NO. 8) (FIG. 11D). […] To test if this Ent-ATP-1 function is conserved in mammals, the present inventors repeated the prior described biotin-Ent pulldown assay (FIG. 3A) using total protein extracts from human HEK293T cells cultured +/− Biotin-Ent.
In vitro binding assay. (a) Ent-biotin pull-down of total proteins: Ent-biotin and streptavidin beads were used to pull down interacting proteins from worm total protein extracts (same method as that in initial screen for Ent-binding proteins). Western blots were performed to detect ATP-1 (Thermo Fisher 43-9800). […] The assay was then quenched with a standard 5×SDS-PAGE_loading buffer (reducing). Proteins were separated by SDS-PAGE and transferred to_nitrocellulose membranes. The membranes were blocked for 1 h with 5% BSA in Trisbuffered saline (TBS) with 0.1% Tween 20 (TBST) at room temperature, followed by incubation for 1 h with horseradish peroxidase streptavidin (Cell Signaling_Technology,3999S) in TBST. After four washes with changes every 15 min in TBST, the_biotinylated proteins were visualized by enhanced chemiluminescence (GE Healthcare,_RPN2232). […] After IP, the amount of 55Fe was determined by liquid scintillation.

ATP5A1 [2] = target: T1, ATP5A1; assay: 55FeCl3 +/- Ent in HEK293T cell lysates, ATP5A1 immunoprecipitation; assay type: binding
mice = assay: Growth of mice fed control (iron-adequate) diet, Ent in drinking water; assay type: in vivo; settings: male mice, drinking water pH 5.5
Description: The present inventors treated 4.5-week male mice with the iron-adequate control diet (CD) described above, the matched control for the iron-deficient diet (IDD). As shown above in FIGS. 20 and 21, mice fed this diet had relative normal hemoglobin and iron levels. […] This experiment was incomplete because the hemoglobin and iron levels were not measured, which will be repeated.

[3] = Ent stability by CAS liquid assay; assay type: physicochemical
Description: FIG. 25. […] Degradation is indicated by increased absorbance. […] Degradation is indicated by increased relative fluorescence. […] For all tests, dilutions were kept at room temp and exposed to light. Error is standard deviation of the mean.

C. elegans = C. elegans larval growth assay: heat-killed E. coli plus trace live E. coli, worm volume; assay type: in vivo; settings: for worm growth with dietary supplementation: worms fed heat-killed E. coli plus live entA- or entF- mutant E. coli (Ent-deficient food)
Description: In one embodiment of the inventive technology, the present inventors created a unique assay to facilitate the identification of microbial metabolites that benefit growth and development of host animals. […] This unique feeding condition was used to search for E. coli mutants that fail to support normal worm growth, potentially due to their inability to provide specific metabolites to benefit host animals.
E. coli Keio collection screen. Preparation of heat-killed (HK) OP50 plates followed the procedure described previously (Qi et al., 2017). Standard overnight culture of E. coli OP50 grown in LB broth was concentrated to 1/10 vol and was then heat-killed in a 75° C. water bath for 90 min. The 150 µl of the HK-OP50 was spread onto one side of NGM plate. For preparation of bacterial mutant assay plates, E. coli Keio (Baba et al., 2006) mutants were grown overnight at 37° C. in LB medium with […] kanamycin. 0.2 uL of the bacterial culture (OD600) were seeded to the other side of HK OP50 plate. About 300 synchronized L1 worms were added to the screen plate, and cultured at 20° C., then scored for worm size at day 3 and day 4. The entire library was used for the primary screen; each bacterial mutant was screened once. For the secondary screen, 200 candidate mutants were screened (3 replicates) to confirm the slow growth phenotype.
Chemical supplementation of culture plates. For chemical supplementation, each chemical was dissolved in water or DMSO to generate a stock. The stock solution was added to HK OP50 and then spotted onto NGM plates. […] For CaEDTA supplementation (Kiang et al., 2014), 50 ul of CaEDTA (50 ug/ul) was spread onto the center of the NGM plates seeded with OP50, then different volume of the FeCl3[175 ug/ul] […] Bacterial growth analyses. Overnight cultures were diluted to a final OD600=0.01 in 200 μL of NGM liquid medium. Bacteria were grown in 96-well plates with shaking in a Synergy2 plate reader (BioTek) at 37° C. for 17 h. The OD600 was recorded at 20 min intervals.
Analysis of larval growth by measuring worm size. Synchronized L1 worms were seeded on the indicated NGM plate and grew to the indicated times. Photos were taken and worms volume in each photo were measured by WormSizer software (Moore et al., 2013).

[4] = tested on: C. elegans smf-3/DMT1 mutant; assay: Growth of iron-deficient C. elegans smf-3/DMT1(-) mutant with iron chelator 2,2'-bipyridyl; assay type: in vivo
Protocol: FIG. 26. […] All tests were done on a smf-3/DMT1(-) mutant strain in a culture media where an iron chelator (2,2′-bipyridyl) was added to reduce the environmental iron level (FIG. 26A). […] This growth delay was rescued by supplementation with Ent, scored as the percentage of the population at the indicated growth stage. […] The entP,fepA: E. coli mutant cannot synthesize or utilize Enterobactin.
SMF-3/DMT1 is a conserved divalent metal transporter that transports iron into intestinal cells. The smf-3/DMT1 mutant has been established as an iron deficiency model in C. elegans. These mutants have defective iron uptake that results in iron deficiency (Romney et al 2011) and delayed growth under iron-poor growth conditions created by addition of an iron chelator (2,2′-bipyridyl) to the culture media (Raj an et al 2019).
To determine if the Enterobactin supplementation was benefiting the worm directly or benefiting the worm through an E. coli-dependent mechanism, the test was repeated using an E. coli double mutant that cannot synthesize or utilize Ent (entP,fepk).

[5] = tested on: mitochondria from HEK293T cells; assay: In vitro mitochondrial iron uptake assay, mitochondria from HEK293T cells; assay type: biochemical, human
Description: Moreover, using siRNA knockdown (FIG. 13A), the present inventors observed that this Ent-mediated increase depended on ATP5A1 (FIG. 6E, F) in a similar manner as that in the assays for C. elegans (FIG. 5A, D). The present inventors also measured the mitochondrial iron level in cells by using the fluorescent mitochondrial iron indicator, RPA, to which iron binding quenches its fluorescence. […] The relatively smaller changes seen for cultured cells, compared to the difference in worms fed heat-killed food (FIG. 2), may potentially be due to the higher base iron level under the cell culturing condition.
Mitochondrial iron uptake assays. For the in vitro mitochondrial iron uptake assay, the present inventors modified a published procedure for analysis of mammalian cells (Devireddy et al., 2010). […] The samples were incubated for 4 hours at room temperature, and the amount of 55Fe in lysed mitochondria was determined by liquid scintillation.

T1 sequence (P25705 44-553): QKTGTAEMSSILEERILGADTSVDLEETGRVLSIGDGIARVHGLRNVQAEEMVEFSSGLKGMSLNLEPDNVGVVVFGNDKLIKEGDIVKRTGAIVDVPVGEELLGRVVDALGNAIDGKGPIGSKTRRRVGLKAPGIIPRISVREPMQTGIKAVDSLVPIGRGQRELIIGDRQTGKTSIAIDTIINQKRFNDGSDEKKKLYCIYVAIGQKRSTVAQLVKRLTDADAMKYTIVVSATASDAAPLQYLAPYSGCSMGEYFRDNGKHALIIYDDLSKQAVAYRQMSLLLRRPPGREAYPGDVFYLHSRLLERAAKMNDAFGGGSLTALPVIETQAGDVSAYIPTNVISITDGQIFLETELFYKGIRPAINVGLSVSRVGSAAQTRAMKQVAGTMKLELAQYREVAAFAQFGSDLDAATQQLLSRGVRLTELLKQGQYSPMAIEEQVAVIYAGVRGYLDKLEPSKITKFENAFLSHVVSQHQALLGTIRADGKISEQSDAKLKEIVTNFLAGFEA

Compound: O=C(N[C@H]1COC(=O)[C@@H](NC(=O)c2cccc(O)c2O)COC(=O)[C@@H](NC(=O)c2cccc(O)c2O)COC1=O)c1cccc(O)c1O [Ent, enterobactin]
- competition of biotin-Ent binding to ATP5A1 (ATP5A1 [1]): effectively competed away
- level of 55Fe in ATP5A1-IP samples (ATP5A1 [2]): increased
- growth rate (weight gain) (mice): increased growth rate
- stability ([3]; 100% DMSO, room temp, light): little change during the assay period
- stability in H2O at varying pH ([3]; H2O pH 6.5/7): more stable than the other dilutions in acidic and basic H2O
- time of rapid degradation ([3]; H20 (pH 5.5) with 10% DMSO, room temp, light): ≤ 60 min
- stability in deionized water ([3]; pH 5.5): highly unstable
- rescue of worm growth by Ent supplementation (C. elegans; RNAi of atp-1 (not ctl-2)): prevented the rescue of worm growth
- worm growth (C. elegans; ferric chloride added to live wild-type E. coli, with heat-killed E. coli): this growth defect was suppressed
- worm growth with dietary supplementation (C. elegans): completely overcome
- worm growth with dietary supplementation (C. elegans; listed as Enterobactin): recovers the growth defect seen with entF-
- development of worms (C. elegans; worms fed only heat-killed bacteria): did not result in any appreciable effect
- growth of smf-3(-) mutants ([4]; E. coli double mutant that cannot synthesize or utilize Ent): rescued the growth of smf-3(-) mutants to adulthood
- growth of smf-3(-) mutants ([4]; iron chelator 2,2'-bipyridyl in media): rescued the growth of smf-3(-) mutants to adulthood
- iron level in mitochondria [5]: prominently increased
